# Legend:
# [1] = test system: ENR+CD organoids (ISC to Paneth cell differentiation); assay: Primary screen: basal (non-stimulated) lysozyme secretion LYZ.NS, 2.5-D 384-well ENR+CD organoid differentiation; assay type: cell-based, mouse; settings: for Dose.FC.LYZ.NS (log2 fold change) / Z.LYZ.NS (standard z score): primary screen
# Source text: High-throughput screening.
# [2] = test system: lysozyme (LYZ) in intestinal organoids; assay: Western blotting of lysozyme in 3D-cultured intestinal organoids; assay type: cell-based, mouse; settings: ENR+CV, ENR+CD or ENR, 6 days
# Source text: Western blotting. ISC-enriched organoids cultured in 3D Matrigel with ENRCV media were passaged to 24-well plate in 3D Matrigel with ENRCV. At day zero, media were replaced to ENR or ENRCD with or without indicated compounds, and media were replaced every other day. At day six, cells were harvested from Matrigel by mechanical disruption and suspended in basal media. Cell pellets were lysed with Pierce® IP lysis buffer (ThermoFisher, 87787) containing Halt™ Protease Inhibitor Cocktail, EDTA-Free (ThermoFisher, 87785) after 3-minute centrifuge at 300×g at 4° C. Cell extracts were resolved by NuPAGE® SDS-PAGE Gel system (ThermoFisher) and electroblotted onto polyvinylidene difluoride membranes using Criterion™ Blotter (Biorad). The membranes were blocked with 2% Blotting-Grade Blocker (Biorad, 1706404) in TBS-T (50 mM Tris-HCl, 150 mM NaCl, and 0.1% Tween 20, pH 8.0) and then probed with appropriate antibodies. Detection was performed using ECL Select™ Western Blotting Detection Reagent (Amersham, 45-000-999) and ImageQuant LAS4000 (GE Healthcare).
# Western blotting. Organoid-containing gel was homogenized in basal medium and centrifuged at 300 rcf for 3 min. Organoid pellet was lysed with ice-cold Pierce IP Lysis Buffer (Thermo Fisher Scientific, #87787) containing Halt Protease Inhibitor Cocktail, EDTA-Free (Thermo Fisher Scientific, #87785) and incubated on ice for 20 min. The lysate was centrifuged at 17,000 rcf for 10 min, and the supernatant was combined with NuPAGE LDS Sample Buffer (Thermo Fisher Scientific, NP0007). Protein concentration was determined by Pierce 660 nm Protein Assay (Thermo Fisher Scientific, #22660) and normalized to the lowest concentration among each sample set. […] Chemiluminescent signals were detected by LAS4000 (GE Healthcare) using Amersham ECL Select Western Blotting Detection Reagent (GE Healthcare, #45-000-999), and total protein signals were obtained by Odyssey Imaging System (LI-COR Biosciences) using REVERT Total Protein Stain Kit (LI-COR Biosciences, #926-11010).
# [3] = test system: small intestine crypts (Paneth, stem, goblet cells); assay: Animal study: histological quantification of Paneth, Olfm4+ stem and PAS+ goblet cells per crypt; assay type: in vivo, mouse; settings: every other day, day 14
# Experimental: Following a similar protocol as previously reported for SINE treatment in the context of cancer (Arango et al., 2017; […] Zheng et al., 2014), KPT-330 was administered at a dose 10 mg/kg via oral gavage every other day over a two-week span in C57BL/6 wild-type mice, and body weight was monitored for any clear toxicity. […] Applicants tracked animal weight every other day, and at day 14 collected the proximal and distal thirds of the small intestine for histological quantification of Paneth, stem, and goblet populations (FIG. 26A). […] Samples were prepared for histology by the ‘swiss-roll’ technique, and following staining, were blinded and randomized before manual counting of well-preserved features. […] Applicants additionally quantified the abundance of Olfm4+ stem cells as well as PAS+ goblet cells within the same animals to ascertain whether the effect of SINE treatment was restricted to the Paneth cell compartment (representative images FIG. 30D,E). […] Animal study. 8-10 weeks old wild type C57BL/6NCrl male mice (#027) were purchased from Charles River. Mice were housed under 12 h light/dark cycle and provided food and water ad libitum. 0.01, 0.05, 0.2 or 10 mg/kg of KPT-330 were injected orally using a disposable gavage needle (Cadence Science, #9921) at 10 μL/g weight. KPT-330 was dissolved in DMSO initially and further diluted in sterile PBS containing Pluronic F-68 Non-ionic Surfactant (Gibco, #24040032) and Polyvinylpyrrolidone (PVP, Alfa Aesar, A14315, average M.W. 58,000); the final concentration of DMSO is 2%, Pluronic is 0.5%, and PVP is 0.5%. KPT-330 was administered every other day for two weeks, 7 injections in total (days 0, 2, 4, 6, 8, 10, 12), and mice were sacrificed at day 14. All animal studies are approved by the Committee on Animal Care (CAC) at Massachusetts Institute of Technology. Histology. The small intestine (SI) was collected from mice and divided into three parts. Only proximal and distal SI were kept in PBS, and medial SI was discarded. Each SI was opened longitudinally and washed in PBS. […] Fixed tissues were embedded in paraffin, and 4 μm sections were mounted on slides. For immunohistochemistry, slides were deparaffinized, antigen retrieved using heat-induced epitope retrieval at 97° C. for 20 min using citrate buffer pH 6, and probed with appropriate antibodies followed by DAB staining. For McManus Periodic Acid Schiff (PAS) reaction, slides were deparaffinized, oxidized in periodic acid, and stained with Schiff reagent (Poly Scientific, s272) followed by counterstaining with Harris Hematoxylin. Slides were scanned by Aperio Slide Scanner (Leica) and cells were counted on Aperio eSlide Manager. Slides were randomized before counting, and all cell types were counted in all well-preserved crypts along the longitudinal crypt-villus axis.
compound,measurement,setting,value
O=C(/C=C\n1cnc(-c2cc(C(F)(F)F)cc(C(F)(F)F)c2)n1)NNc1cnccn1 [KPT-330],primary screen hit call (SSMD and z-scored FC cutoffs in both LYZ assays),"[1]; LYZ.NS and LYZ.S, 0.08-10 uM, 6 days ENR+CD",sole hit in their respective pathway
same,Dose.FC.LYZ.NS (log2 fold change),[1]; dose 0.08 uM,0.200
same,Z.LYZ.NS (standard z score),[1]; dose 0.08 uM,1.745
same,Dose.FC.LYZ.NS (log2 fold change),[1]; dose 0.40 uM,−0.266
same,Z.LYZ.NS (standard z score),[1]; dose 0.40 uM,−2.317
same,Dose.FC.LYZ.NS (log2 fold change),[1]; dose 2.00 uM,−0.280
same,Z.LYZ.NS (standard z score),[1]; dose 2.00 uM,−2.439
same,Dose.FC.LYZ.NS (log2 fold change),[1]; dose 10.00 uM,−0.284
same,Z.LYZ.NS (standard z score),[1]; dose 10.00 uM,−2.470
same,LYZ abundance per-mass protein (Western blot),[2],appreciably increase LYZ abundance
same,"Olfm4+ stem cells, distal small intestine",[3]; 0.01 mg/kg oral,significant increase in Olfm4+ stem cells
same,"Paneth cells per crypt, distal small intestine",[3]; 0.01 mg/kg oral,significant increases in Paneth abundance
same,"Paneth cells per crypt, proximal small intestine",[3]; 0.01 mg/kg oral,significant increases in Paneth abundance
same,"Paneth cells per crypt, proximal small intestine",[3]; 0.2 mg/kg oral,significant increases in Paneth abundance
same,PAS+ goblet cell population,[3]; 0.01-0.2 mg/kg oral,did not overserve any significant changes

# Reference: patent US20220323406A1, “METHODS AND COMPOSITIONS FOR DIFFERENTIATING STEM CELLS” (Massachusetts Institute of Technology, priority 2019, published 2022)
